Source: ChEMBL document CHEMBL1201862, “PubChem BioAssay data set” (2004)
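Assay format: 96-well plates, 48-hour exposure. At the GI50, growth is halved.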 Calls of active or inactive are those of the source. No stated cut-off is given here; in the data, active = GI50 up to about 1.1 µM and inactive = higher.

Key:
Test in all cases: inhibition of tumour cell growth, NCI panel, 48 h
HCC 2998 = tested on: HCC 2998
UACC-257 = tested on: UACC-257
SK-MEL-5 = tested on: SK-MEL-5
NCI/ADR-RES = tested on: NCI/ADR-RES
SF-295 = tested on: SF-295
M14 = tested on: M14
UACC-62 = tested on: UACC-62
A549 = tested on: A549
OVCAR-8 = tested on: OVCAR-8
ACHN = tested on: ACHN
MCF7 = tested on: MCF7
EKVX = tested on: EKVX
RXF 393 = tested on: RXF 393
NCI-H460 = tested on: NCI-H460
786-0 = tested on: 786-0
SNB-19 = tested on: SNB-19
CAKI-1 = tested on: CAKI-1
COLO 205 = tested on: COLO 205
OVCAR-4 = tested on: OVCAR-4

Row | SMILES | GI50 (HCC 2998) | GI50 (UACC-257) | GI50 (SK-MEL-5) | GI50 (NCI/ADR-RES) | GI50 (SF-295) | GI50 (M14) | GI50 (UACC-62) | GI50 (A549) | GI50 (OVCAR-8) | GI50 (ACHN) | GI50 (MCF7) | GI50 (EKVX) | GI50 (RXF 393) | GI50 (NCI-H460) | GI50 (786-0) | GI50 (SNB-19) | GI50 (CAKI-1) | GI50 (COLO 205) | GI50 (OVCAR-4)
1 | CC1(C)CC(O)CC(C)(C)N1O [TEMPOL HYDROXYLAMINE] | > 100 µM (inactive) | > 100 µM (inactive) | > 100 µM (inactive) | > 100 µM (inactive) | > 100 µM (inactive) | > 100 µM (inactive) | > 100 µM (inactive) | > 100 µM (inactive) | > 100 µM (inactive) | > 100 µM (inactive) | > 100 µM (inactive) | > 100 µM (inactive) | > 100 µM (inactive) | > 100 µM (inactive) | > 100 µM (inactive) | > 100 µM (inactive) | > 100 µM (inactive) | > 100 µM (inactive) | –
2 | Cc1c(NC(=O)Nc2c(Cl)cccc2Cl)c(=O)n(-c2ccccc2)n1C | – | > 100 µM (inactive) | > 100 µM (inactive) | > 100 µM (inactive) | > 100 µM (inactive) | > 100 µM (inactive) | > 100 µM (inactive) | > 100 µM (inactive) | > 100 µM (inactive) | > 100 µM (inactive) | > 100 µM (inactive) | > 100 µM (inactive) | > 100 µM (inactive) | > 100 µM (inactive) | > 100 µM (inactive) | > 100 µM (inactive) | > 100 µM (inactive) | > 100 µM (inactive) | > 100 µM (inactive)
3 | N#CC1C(=O)NC(=O)C(C#N)C1c1ccc(Cl)c(Cl)c1 (stereo not given) | – | 35.9 µM (inactive) | 20.9 µM (inactive) | 28 µM (inactive) | 40.3 µM (inactive) | 23.4 µM (inactive) | – | 49.3 µM (inactive) | 37.4 µM (inactive) | 22.4 µM (inactive) | 34.4 µM (inactive) | > 100 µM (inactive) | 21 µM (inactive) | 30.1 µM (inactive) | 20.1 µM (inactive) | 91.2 µM (inactive) | 22.4 µM (inactive) | > 100 µM (inactive) | 81.8 µM (inactive)
4 | COc1ccccc1C[C@@H]1OC2(C=CC(=O)C=C2)O[C@H]1Cc1ccccc1OC | – | 8.11 µM (inactive) | 8.99 µM (inactive) | 8.38 µM (inactive) | 11 µM (inactive) | 7.5 µM (inactive) | 10.3 µM (inactive) | 21.7 µM (inactive) | 1.27 µM (inactive) | 7.89 µM (inactive) | 3.96 µM (inactive) | 5.65 µM (inactive) | 1.16 µM (inactive) | 23 µM (inactive) | 1.39 µM (inactive) | 9.95 µM (inactive) | 10.3 µM (inactive) | 8.11 µM (inactive) | 8.38 µM (inactive)
5 | Cc1nc(OCc2ccccc2)c2ncn(CCO)c2n1 | – | > 100 µM (inactive) | > 100 µM (inactive) | > 100 µM (inactive) | > 100 µM (inactive) | > 100 µM (inactive) | > 100 µM (inactive) | > 100 µM (inactive) | – | > 100 µM (inactive) | > 100 µM (inactive) | – | > 100 µM (inactive) | > 100 µM (inactive) | > 100 µM (inactive) | > 100 µM (inactive) | > 100 µM (inactive) | > 100 µM (inactive) | > 100 µM (inactive)
6 | O=[N+]([O-])c1ccc(NS(=O)(=O)C(F)(F)F)cc1 | – | > 100 µM (inactive) | > 100 µM (inactive) | > 100 µM (inactive) | > 100 µM (inactive) | > 100 µM (inactive) | > 100 µM (inactive) | > 100 µM (inactive) | > 100 µM (inactive) | > 100 µM (inactive) | > 100 µM (inactive) | > 100 µM (inactive) | > 100 µM (inactive) | > 100 µM (inactive) | > 100 µM (inactive) | > 100 µM (inactive) | > 100 µM (inactive) | > 100 µM (inactive) | > 100 µM (inactive)
7 | COc1ccc(Nc2nc3ccccc3nc2C(=O)O)cc1OC | 71.6 µM (inactive) | 98.2 µM (inactive) | 28.5 µM (inactive) | 35.2 µM (inactive) | 33.2 µM (inactive) | > 100 µM (inactive) | 60.8 µM (inactive) | > 100 µM (inactive) | > 100 µM (inactive) | 44.8 µM (inactive) | 40.3 µM (inactive) | 61.7 µM (inactive) | 74.1 µM (inactive) | 45.8 µM (inactive) | 73.6 µM (inactive) | 73.1 µM (inactive) | 29.6 µM (inactive) | > 100 µM (inactive) | –
8 | COc1cc(/C=C\C(=O)O)ccc1OCc1ccccc1 | > 100 µM (inactive) | > 100 µM (inactive) | > 100 µM (inactive) | > 100 µM (inactive) | > 100 µM (inactive) | > 100 µM (inactive) | > 100 µM (inactive) | > 100 µM (inactive) | > 100 µM (inactive) | > 100 µM (inactive) | > 100 µM (inactive) | > 100 µM (inactive) | > 100 µM (inactive) | > 100 µM (inactive) | > 100 µM (inactive) | > 100 µM (inactive) | > 100 µM (inactive) | > 100 µM (inactive) | –
9 | Cc1cn2c(/C=N/NC(=N)N)c(-c3ccc(Cl)c([N+](=O)[O-])c3)nc2s1 | – | 0.178 µM (active) | 1.56 µM (inactive) | > 28.5 µM (inactive) | 1.3 µM (inactive) | 1.63 µM (inactive) | 1.78 µM (inactive) | 1.61 µM (inactive) | 0.416 µM (active) | 1.76 µM (inactive) | 0.895 µM (active) | 0.776 µM (active) | 0.59 µM (active) | 1.42 µM (inactive) | 0.984 µM (active) | – | 3.36 µM (inactive) | 0.661 µM (active) | 1.55 µM (inactive)
10 | NC(=O)Cn1c(=O)oc2cc(C(=O)CN3CCOCC3)ccc21 | – | – | > 100 µM (inactive) | > 100 µM (inactive) | > 100 µM (inactive) | > 100 µM (inactive) | – | – | > 100 µM (inactive) | – | > 100 µM (inactive) | > 100 µM (inactive) | > 100 µM (inactive) | – | > 100 µM (inactive) | > 100 µM (inactive) | > 100 µM (inactive) | > 100 µM (inactive) | –
11 | O=C1NC(=O)C(c2c[nH]c3ccccc23)=C1c1cnc[nH]1 | – | > 100 µM (inactive) | 22.5 µM (inactive) | > 100 µM (inactive) | > 100 µM (inactive) | > 100 µM (inactive) | – | > 100 µM (inactive) | > 100 µM (inactive) | > 100 µM (inactive) | 34.5 µM (inactive) | > 100 µM (inactive) | > 100 µM (inactive) | 55.3 µM (inactive) | > 100 µM (inactive) | > 100 µM (inactive) | > 100 µM (inactive) | 49.5 µM (inactive) | > 100 µM (inactive)
12 | O=C(O)c1cc2c(cc1CC(Cc1ccc3c(c1)CCC3)C(=O)O)CCC2 (stereo not given) | > 100 µM (inactive) | > 100 µM (inactive) | > 100 µM (inactive) | > 100 µM (inactive) | > 100 µM (inactive) | > 100 µM (inactive) | – | > 100 µM (inactive) | > 100 µM (inactive) | > 100 µM (inactive) | > 100 µM (inactive) | > 100 µM (inactive) | > 100 µM (inactive) | > 100 µM (inactive) | > 100 µM (inactive) | > 100 µM (inactive) | > 100 µM (inactive) | > 100 µM (inactive) | > 100 µM (inactive)
